“Also recorded” adds a separate entry of the source. Residues, ends and D or L forms follow the SMILES beside them.
Columns and labels:
[1] = tested on: spontaneously hypertensive rats (SHR); assay: Antihypertensive activity: systolic arterial pressure (tail cuff) in spontaneously hypertensive rats; format: in vivo, rat
Description: (§1) The effect is studied of various identified peptides and of some products containing them (for example egg white hydrolysed with pepsin for 3 hours and the fraction of it less than 3000 Da) on the arterial pressure of spontaneously hypertensive rats (SHR) and Wistar-Kyoto rats (WKY) which are the normotense controls for the SHR.
(§2) This study is conducted with SHR (10) and WKY of 17-24 weeks old and weight between 300 and 350 g, coming from Charles River Laboratories España, S. A. The rats are kept in cages of five by five and maintained at a stable temperature of 25° C. with light-dark cycles of 12 hours, ingesting freely available water and food. In order to carry out the measurement of systolic arterial pressure (SAP) “tail cuff” equipment is used (Le5001, Letica) which automatically provides a digital value of the SAP and records and facilitates the cardiac frequency of the animals. Various measurements are made and the average of all of them is obtained in order to achieve a reliable value of the SAP. Before positioning the cuff and transducer in the tail of the rats, the rats are exposed to a temperature of close to 30° C. in order to facilitate dilation of the caudal artery. Also, in order to ensure the reliability of the measurement, the animals are made to get used to the procedure for two weeks prior to conducting each assay in question.
(§3) The administration of the products to be assayed is done by means of an intragastric probe in a time margin of between 9 and 10 o'clock in the morning. The SHR used for the study had SAP values of between 230 and 280 mm Hg. The WKY used for the study at that moment had SAP values of between 160 and 200 mm Hg. Measurements of the SAP were taken from the animals periodically, every 2 hours, up to 8 hours post-administration of the products to be assayed; in addition, a SAP measurement was taken 24 hours after the administration of those products. As negative control (in order to establish the circadian variation of the SAP in probed rats) the measurements of the SAP obtained in rats which had been administered 1 ml of water by means of intragastric probe were used. As positive control, the measurements of the SAP obtained in rats which had been administered 50 mg/kg of Captopril (prototype ACEI drug) by means of intragastric probe were used. This dose of Captopril was administered to each rat in a volume of 1 ml. In order to establish the effect of the unhydrolysed egg white on the arterial pressure of the animals, similar assays to those described above were conducted, in which the animals were treated by the same procedure with 200 mg/kg of previously freeze-dried egg white (reference).
The results obtained are grouped and the mean±the standard error of measurement (SEM) is obtained for a minimum of 9 homogenous assays. The data of the treated animals are always compared with the data deemed to be a negative control. In order to compare them and obtain the statistical significance, Student's t-test for unpaired data is used and the difference for values of p<0.05 is considered significant.

Wistar-Kyoto rats (WKY) [2] = assay: Systolic arterial pressure (tail cuff) in normotense Wistar-Kyoto rats; format: in vivo, rat; details: highest dose used, intragastric probe
Description: as §1, §2, §3
The results obtained are grouped and the mean±the standard error of measurement (SEM) is obtained for a minimum of 9 homogenous assays. […]

[3] = tested on: spontaneously hypertensive rats (SHR); assay: Anti-hypertensive activity, systolic arterial pressure (SAP), in spontaneously hypertensive rats; format: in vivo, rat; details: oral, intragastric probe, Captopril 50 mg/kg, SEQ. ID. No 6 and 3 0.5-2 mg/kg, SEQ. ID. No 2 1-4 mg/kg
Description: (§4) The effect is studied of various identified peptides and of some products containing them (for example egg white hydrolysed with pepsin for 3 hours and the fraction of it less than 3000 Da) on the arterial pressure of spontaneously hypertensive rats (SHR) and Wistar-Kyoto rats (WKY) which are the normotense controls for the SHR. This study is conducted with SHR (10) and WKY of 17-24 weeks old and weight between 300 and 350 g, coming from Charles River Laboratories […]. The rats are kept in cages of five by five and maintained at a stable temperature of 25° C. with light-dark cycles of 12 hours, ingesting freely available water and food. In order to carry out the measurement of systolic arterial pressure (SAP) “tail cuff” equipment is used (Le5001, Letica) which automatically provides a digital value of the SAP and records and facilitates the cardiac frequency of the animals. Various measurements are made and the average of all of them is obtained in order to achieve a reliable value of the SAP. Before positioning the cuff and transducer in the tail of the rats, the rats are exposed to a temperature of close to 30° C. in order to facilitate dilation of the caudal artery. Also, in order to ensure the reliability of the measurement, the animals are made to get used to the procedure for two weeks prior to conducting each assay in question. The administration of the products to be assayed is done by means of an intragastric probe in a time margin of between 9 and 10 o'clock in the morning. The SHR used for the study had SAP values of between 230 and 280 mm Hg. The WKY used for the study at that moment had SAP values of between 160 and 200 mm Hg. Measurements of the SAP were taken from the animals periodically, every 2 hours, up to 8 hours post-administration of the products to be assayed; in addition, a SAP measurement was taken 24 hours after the administration of those products. As negative control (in order to establish the circadian variation of the SAP in probed rats) the measurements of the SAP obtained in rats which had been administered 1 ml of water by means of intragastric probe were used. […] This dose of Captopril was administered to each rat in a volume of 1 ml. In order to establish the effect of the unhydrolysed egg white on the arterial pressure of the animals, similar assays to those described above were conducted, in which the animals were treated by the same procedure with 200 mg/kg of previously freeze-dried egg white (reference). The results obtained are grouped and the mean±the standard error of measurement (SEM) is obtained for a minimum of 9 homogenous assays. The data of the treated animals are always compared with the data deemed to be a negative control. […]

Wistar-Kyoto rats (WKY) [4] = assay: Effect on systolic arterial pressure (SAP) in normotense Wistar-Kyoto rats; format: in vivo, rat; details: intragastric probe, highest dose used: SEQ. ID. No 6 and 3 2 mg/kg, SEQ. ID. No 2 4 mg/kg, Captopril 50 mg/kg
Description: as §4

[5] = tested on: spontaneously hypertensive rats (SHR); details: ovokinin oral 100 mg/kg, ovokinin (2-7) 10 mg/kg; cited from earlier work
[6] = tested on: spontaneously hypertensive rats (SHR); details: literature, cited from earlier work; for anti-hypertensive activity relative to ovokinin (2-7): following administration to SHRs
[7] = tested on: angiotensin converting enzyme (ACE); details: result in words, literature; cited from earlier work
[8] = tested on: angiotensin converting enzyme (ACE) (EC 3.4.15.1, Sigma); assay: In vitro inhibitory activity of the angiotensin converting enzyme (ACEI activity); format: biochemical; details: result in words
Description: Measurement of the Inhibitory Activity of the Angiotensin Converting Enzyme (ACEI Activity)
The inhibitory activity of the angiotensin converting enzyme (ACE) is measured in vitro according to the method of D. W. Cushman and H. S. Cheung (Spectrophotometric assay and properties of the angiotensin-converting enzyme of rabbit lung. Biochemical Pharmacology, 1971, 20: 1637-1648), later on modified by Y. K. Kim, S. Yoon, D. Y. Yu, B. Lönnerdal and B. H. Cheung (Novel angiotensin-I-converting enzyme inhibitory peptides derived from recombinant human αs1-casein expressed in Escherichia coli, Journal of Dairy Research 1999, 66, 431-439).
The substrate hippuryl histidyl leucine (HHL, Sigma Chemicals Co., St. Louis, Mo., USA) is dissolved in a 0.1 M borate buffer with 0.3 M NaCl pH 8.3 to obtain a final concentration of 5 mM. To 100 μl of substrate are added 40 μl of each of the samples whose ACEI activity it is wished to determine. The ACE enzyme (EC 3.4.15.1, Sigma) is added, dissolved in 50% glycerol and diluted 1/10 in bidistilled water at the moment of conducting the assay. The reaction is carried out at 37° C. for 30 minutes in a water-bath. The enzyme is deactivated by lowering the pH with 150 μl of 1 N HCl. The hippuric acid formed is extracted with 1000 μl of ethyl acetate. Following vortex stirring for 20 seconds, it is centrifuged at 4000 rpm for 10 minutes at room temperature. 750 μl of the organic phase are taken and evaporated by heating at 95° C. for 10 minutes. The hippuric acid residue is redissolved in 800 μl of bidistilled water and, following stirring for 20 seconds, the absorbency at 228 nm is measured in a Dur-70 spectrophotometer from Beckman Instruments, Inc., Fullerton, USA.
In order to calculate the percentage of ACEI activity, the following formula is used
The blank is used for correcting the background absorbency. This contains substrate, enzyme and 20 μl of bidistilled water in place of the sample, and the reaction is halted at zero time. The control implies a hundred percent of the enzymatic action on the substrate in the absence of inhibitors and contains 20 μl of water in place of the sample and is incubated the same time as the sample.
The results are presented as the IC50 (μM or μg/ml) or concentration at which 50% of the enzyme's activity is inhibited. The concentration of protein is determined by means of the bicinchonomic acid (BCA) assay (Pierce, Rockford, Ill., USA) using bovine seroalbumin as reference.

Which “time of maximum drop in SAP after administration” value ([1]; intragastric probe) does the source give for `C[C@H](CS)C(=O)N1CCC[C@H]1C(=O)O` [Captopril, reference compound] here?
Its value is 6 h.

And the “drop in systolic arterial pressure (SAP) / anti-hypertensive activity (in words)” value ([1]; single administration by intragastric probe)?
Its value is “pronounced drop in SAP”.

And the “change in SAP in normotense rats (in words)” value (Wistar-Kyoto rats (WKY) [2])?
Its value is “none of these compounds modifies the SAP”.

What about the “anti-hypertensive activity / drop in SAP” value [3] of the same compound?
Its value is “pronounced drop in SAP in the SHR”.

What about the “effect on SAP” value (Wistar-Kyoto rats (WKY) [4]) of the same compound?
The value was “none of these compounds modifies the SAP of WKY rats”.

For `CC(C)C[C@H](N)C(=O)N[C@@H](Cc1c[nH]c2ccccc12)C(=O)O` [LW], which “anti-hypertensive / vasodilatory activity in SHR (in words)” value [5] is on record?
Its value is “displayed anti-hypertensive activity”.

What about the anti-hypertensive activity ([6]; SHR, ovokinin orally 100 mg/kg) of the same compound?
Its anti-hypertensive activity is “displayed anti-hypertensive activity in spontaneously hypertensive rats (SHR)”.

Which results are given for `N=C(N)NCCC[C@H](N)C(=O)N1CCC[C@H]1C(=O)N[C@@H](Cc1ccccc1)C(=O)N[C@@H](Cc1cnc[nH]1)C(=O)N1CCC[C@H]1C(=O)N[C@@H](Cc1ccccc1)C(=O)O` [RPFHPF] (H-RPFHPF-OH)?
ACEI activity [7]: neither ovokinin (2-7), nor its RPFHPF (SEQ. ID. NO: 10) or RPLKPW (SEQ. ID. NO: 11) derivatives possessed ACEI activity; minimum effective dose ([6]; SHR): 1 mg/kg; anti-hypertensive activity relative to ovokinin (2-7) [6]: 10 times

Which results are given for `CC(C)C[C@H](NC(=O)[C@@H]1CCCN1C(=O)[C@@H](N)CCCNC(=N)N)C(=O)N[C@@H](CCCCN)C(=O)N1CCC[C@H]1C(=O)N[C@@H](Cc1c[nH]c2ccccc12)C(=O)O` [RPLKPW] (H-RPLKPW-OH)?
ACEI activity [7]: neither ovokinin (2-7), nor its RPFHPF (SEQ. ID. NO: 10) or RPLKPW (SEQ. ID. NO: 11) derivatives possessed ACEI activity; minimum effective dose ([6]; SHR): 0.1 mg/kg; anti-hypertensive activity relative to ovokinin (2-7) [6]: 100 times

With `CC[C@H](C)[C@H](N)C(=O)N[C@H](C(=O)N[C@@H](Cc1ccccc1)C(=O)O)C(C)C` [SEQ. ID. No 2, IVF] as the compound, how does the “ACEI activity in vitro” value [8] read?
Its value is “potent ACEI activity in vitro”.

What about the “anti-hypertensive activity / drop in SAP” value [3] of the same compound?
The value was “possess anti-hypertensive activity in spontaneously hypertensive rats (SHR); also recorded: display anti-hypertensive activity in rats”.

And the “effect on SAP” value (Wistar-Kyoto rats (WKY) [4])?
Its value is “none of these compounds modifies the SAP of WKY rats”.

With `CC(C)C[C@H](NC(=O)[C@H](Cc1ccccc1)NC(=O)[C@@H]1CCCN1C(=O)[C@H](Cc1cnc[nH]1)NC(=O)[C@H](CC(=O)O)NC(=O)[C@H](C)NC(=O)[C@@H](N)CCCNC(=N)N)C(=O)O` [SEQ. ID. No 3, RADHPFL] (H-RADHPFL-OH) as the compound, how does the “ACEI activity in vitro” value [8] read?
Its value is “potent ACEI activity in vitro”.

And the “anti-hypertensive activity / drop in SAP” value [3]?
Its value is “possess anti-hypertensive activity in spontaneously hypertensive rats (SHR); also recorded: display anti-hypertensive activity in rats”.

And the “effect on SAP” value (Wistar-Kyoto rats (WKY) [4])?
The value was “none of these compounds modifies the SAP of WKY rats”.

For `CC[C@H](C)[C@H](NC(=O)[C@@H]1CCCN1C(=O)[C@H](Cc1ccc(O)cc1)NC(=O)[C@H](CCCNC(=N)N)NC(=O)[C@H](CCC(=O)O)NC(=O)[C@H](CCC(=O)O)NC(=O)[C@H](C)NC(=O)[C@@H](N)Cc1ccc(O)cc1)C(=O)N[C@@H](CC(C)C)C(=O)O` [SEQ. ID. No 6] (H-YAEERYPIL-OH), which “ACEI activity in vitro” value [8] is on record?
The value was “potent ACEI activity in vitro”.

What about the “anti-hypertensive activity / drop in SAP” value [3] of the same compound?
Its value is “possess anti-hypertensive activity in spontaneously hypertensive rats (SHR); also recorded: display anti-hypertensive activity in rats”.

And the “effect on SAP” value (Wistar-Kyoto rats (WKY) [4])?
The value was “none of these compounds modifies the SAP of WKY rats”.

With `C[C@H](NC(=O)[C@@H](N)CCCNC(=N)N)C(=O)N[C@@H](CC(=O)O)C(=O)N[C@@H](Cc1cnc[nH]1)C(=O)N1CCC[C@H]1C(=O)N[C@@H](Cc1ccccc1)C(=O)O` [ovokinin (2-7), RADHPF] (H-RADHPF-OH) as the compound, how does the “anti-hypertensive / vasodilatory activity in SHR (in words)” value [5] read?
Its value is “exerted a potent vasodilatory action”.

And the ACEI activity [7]?
Its ACEI activity is “neither ovokinin (2-7), nor its RPFHPF (SEQ. ID. NO: 10) or RPLKPW (SEQ. ID. NO: 11) derivatives possessed ACEI activity”.

And the vasodilatory action ([6]; SHR, doses of 10 mg/kg)?
The vasodilatory action was “potent vasodilatory action in SHR”.

— patent US8227207B2, “Bioactive peptides derived from the proteins of egg white by means of enzymatic hydrolysis” (Consejo Superior de Investigaciones Cientifcas, priority 2004, dated 2012)
